Assay results taken from patent US10323266B2, “Antimicrobial susceptibility testing device, antimicrobial susceptibility testing kit, and antimicrobial susceptibility testing method” (Hitachi, Ltd., priority 2015, dated 2019).

Test system: Escherichia coli (ATCC25922 strain)
Assay: antimicrobial susceptibility test by an ATP method (ATP luminescence), E. coli
Format: cell-based
Details: for RLU value as compared with that at ampicillin 0 μg/mL: plateau after 2 hours
Excerpt: In the Example, the amount of luminescence is expressed by the integration of the 60-sec photon count, and the unit is the amount of luminescence (a.u.). Since the amount of luminescence and the amount of ATP are in a proportional relationship, the increase in the amount of luminescence and the increase in the amount of ATP are to be expressed with the same implications.
Benzalkonium chloride was used as an extraction liquid, and Lucifer HS set (Kikkoman) was used as a luminescence reagent.
First, H. influenzae was cultured one night on a chocolate agar medium under a carbon dioxide gas atmosphere of 5 to 10%, and on the next day, the colony was suspended in a Mueller-Hinton (hereinafter referred to as MH) medium to produce a bacterial suspension that was prepared to 0.5 McFarland. Next, in a plate in which 50 μL each of an MH medium with the antibody of the two-fold concentration of the final concentration was previously dispensed, 50 μL each of a bacterial suspension diluted 500-fold with the MH medium was dispensed to provide an AST panel.
The first plate 21 and the second plate 22 were joined via the joint portion 23. The temperature of the ATP examination culture plate 12 was kept at 37° C. by the heater 11 and after a certain period of time, 10 μL of the bacterial culture solution of H. influenzae was dispensed from the culture vessel in the first plate 21 into the reaction vessel in the second plate 22 in which the gas atmosphere was previously prepared to 5 to 10% carbon dioxide. Subsequently, 10 μL of the extraction liquid was dispensed from the extraction liquid holding part 43 into the reaction vessel, and then 50 μL of the luminescence reagent was dispensed from the luminescence reagent holding part 46 into the reaction vessel.
After dispensing the luminescence reagent, the amount of luminescence in the reaction vessel was detected by the optical detector 13. In the optical detector 13, photo-counting was performed for 1 minute, and the detected amount of luminescence RLU (relative light unit) was used as a measure of the amount of ATP.
Example 2 was conducted in the same manner as in Example 1, except that Escherichia coli (ATCC25922 strain, hereinunder, E. coli) was used as bacterial cells, ampicillin was used as an antibody, and the gas atmosphere in the culture solution holding part 47 and the reaction vessel 44 of the ATP examination culture plate 21 was an air atmosphere. The antibody (ampicillin) concentration was 0, 2, 4, and 8 μg/mL. […] When the ampicillin concentration was 0 μg/mL, RLU increased in an exponential manner from the start of the culture until 4 hours, and thereafter ran at a constant value. […] On the other hand, when the ampicillin concentration was 4 μg/mL and 8 μg/mL, RLU increased from the start of the culture until 2 hours and thereafter ran at a constant value. The RLU value was as low as about 1/20 as compared with that at an ampicillin concentration of 0 μg/mL, and it can be seen that the growth of E. coli was suppressed by the action of ampicillin.

## CC1(C)S[C@@H]2[C@H](NC(=O)[C@H](N)c3ccccc3)C(=O)N2[C@H]1C(=O)O [ampicillin]
Ampicillin 2 μg/mL
  susceptibility determination of E. coli: resistant
Ampicillin 2 μg/mL, air atmosphere, FIG. 10, 0 μg/mL: exponential increase until 4 hours, then constant
  RLU time course compared with ampicillin 0 μg/mL: a similar trend was shown
Ampicillin 4 μg/mL
  susceptibility determination of E. coli: has sensitivity
Ampicillin 4 μg/mL, air atmosphere, FIG. 10
  RLU value as compared with that at ampicillin 0 μg/mL: about 1/20
Ampicillin 8 μg/mL
  susceptibility determination of E. coli: has sensitivity
Ampicillin 8 μg/mL, air atmosphere, FIG. 10
  RLU value as compared with that at ampicillin 0 μg/mL: about 1/20
Tested 0, 2, 4 and 8 μg/mL, ATP luminescence
  concentration at which E. coli has sensitivity: ≥ 4 µg/mL
